Experimental data taken from ChEMBL document CHEMBL4152339, “Design and synthesis of novel 1H-tetrazol-5-amine based potent antimicrobial agents: DNA topoisomerase IV and gyrase affinity evaluation supported by molecular docking studies” (Eur J Med Chem, 2018).
Converted amounts (≈) assume the structure as drawn.

Tests used:
Staphylococcus aureus [1] = test: Antibacterial activity against Staphylococcus aureus ATCC 6538 after 18 hrs by CLSI disc diffusion method; type: functional; settings: ATCC 6538, 18 h
Enterococcus faecalis = test: Antibacterial activity against Enterococcus faecalis ATCC 29212 after 18 hrs by CLSI disc diffusion method; type: functional; settings: ATCC 29212, 18 h
Micrococcus luteus [2] = test: Antibacterial activity against Micrococcus luteus ATCC 9341 after 18 hrs by CLSI disc diffusion method; type: functional; settings: ATCC 9341, 18 h
Staphylococcus aureus [3] = test: Antibacterial activity against Staphylococcus aureus ATCC 25923 after 18 hrs by CLSI disc diffusion method; type: functional; settings: ATCC 25923, 18 h
[4] = system: Staphylococcus epidermidis; test: Antibacterial activity against Staphylococcus epidermidis ATCC 35984 after 18 hrs by CLSI […] method; type: functional; settings: ATCC 35984, 18 h
[5] = Selectivity index, ratio of IC50 for human HaCaT cells to MIC for Staphylococcus aureus NCTC 4163; type: toxicity; settings: read-out: Selectivity Index
[6] = Selectivity index, ratio of IC50 for human HaCaT cells to MIC for Bordetella bronchiseptica ATCC 4617; type: toxicity; settings: read-out: Selectivity Index
[7] = Selectivity index, ratio of IC50 for human HaCaT cells to MIC for Proteus vulgaris NCTC 4635; type: toxicity; settings: read-out: Selectivity Index
[8] = Selectivity index, ratio of IC50 for human HaCaT cells to MIC for Bacillus subtilis ATCC 6633; type: toxicity; settings: read-out: Selectivity Index
[9] = system: Bordetella bronchiseptica; test: Antibacterial activity against Bordetella bronchiseptica ATCC 4617 after 18 hrs by CLSI disc diffusion method; type: functional; settings: ATCC 4617, 18 h
Pseudomonas aeruginosa [10] = test: Antibacterial activity against Pseudomonas aeruginosa ATCC 15442 after 18 hrs by CLSI disc diffusion method; type: functional; settings: ATCC 15442, 18 h
Staphylococcus aureus [11] = test: Antibacterial activity against Staphylococcus aureus NCTC 4163 after 18 hrs by CLSI disc diffusion method; type: functional; settings: NCTC 4163, 18 h
A549 = test: Cytotoxicity activity against human A549 cells assessed as reduction in cell viability after 72 hrs by MTT assay; type: cell-based; settings: A549, 72 h
Pseudomonas aeruginosa [12] = test: Antibacterial activity against Pseudomonas aeruginosa ATCC 27853 after 18 hrs by CLSI disc diffusion method; type: functional; settings: ATCC 27853, 18 h
[13] = Selectivity index, ratio of IC50 for human HaCaT cells to MIC for Micrococcus luteus ATCC 10240; type: toxicity; settings: read-out: Selectivity Index
Enterococcus hirae = test: Antibacterial activity against Enterococcus hirae ATCC 10541 after 18 hrs by CLSI disc diffusion method; type: functional; settings: ATCC 10541, 18 h
HaCaT = test: Cytotoxicity activity against human HaCaT cells assessed as reduction in cell viability after 72 hrs by MTT assay; type: cell-based
Proteus vulgaris = test: Antibacterial activity against Proteus vulgaris NCTC 4635 after 18 hrs by CLSI disc diffusion method; type: functional; settings: NCTC 4635, 18 h
Bacillus cereus = test: Antibacterial activity against Bacillus cereus ATCC 11778 after 18 hrs by CLSI disc diffusion method; type: functional; settings: ATCC 11778, 18 h
Bacillus spizizenii = test: Antibacterial activity against Bacillus subtilis ATCC 6633 after 18 hrs by CLSI disc diffusion method; type: functional; settings: ATCC 6633, 18 h
[14] = Selectivity index, ratio of IC50 for human HaCaT cells to MIC for Escherichia coli ATCC 10538; type: toxicity; settings: read-out: Selectivity Index
[15] = system: Staphylococcus epidermidis; test: Antibacterial activity against Staphylococcus epidermidis ATCC 12228 after 18 hrs by CLSI disc diffusion method; type: functional; settings: ATCC 12228, 18 h
Micrococcus luteus [16] = test: Antibacterial activity against Micrococcus luteus ATCC 10240 after 18 hrs by CLSI disc diffusion method; type: functional; settings: ATCC 10240, 18 h
[17] = Selectivity index, ratio of IC50 for human HaCaT cells to MIC for Enterococcus hirae ATCC 10541; type: toxicity; settings: read-out: Selectivity Index
Escherichia coli = test: Antibacterial activity against Escherichia coli ATCC 10538 after 18 hrs by CLSI disc diffusion method; type: functional; settings: ATCC 10538, 18 h

Fc1ccc(-n2nnnc2Nn2cnnc2)cc1Cl gave an MIC (Staphylococcus aureus [1]) of 14 µM (≈ 3.93 µg/mL), an MIC (Enterococcus faecalis) of 114 µM (≈ 32 µg/mL) and an MIC (Micrococcus luteus [2]) of 57 µM (≈ 16 µg/mL). For the same molecule, the MIC (Staphylococcus aureus [3]) was 29 µM (≈ 8.14 µg/mL), the MIC [4] was 14 µM (≈ 3.93 µg/mL) and the selectivity ratio [5] was 4.42. The selectivity ratio [6] was 0.07, the selectivity ratio [7] was 1.08 and the selectivity ratio [8] was 1.08. The MIC [9] was > 914 µM, the MIC (Pseudomonas aeruginosa [10]) was 914 µM (≈ 257 µg/mL) and the MIC (Staphylococcus aureus [11]) was 14 µM (≈ 3.93 µg/mL). The IC50 (A549) was 60 µM, the MIC (Pseudomonas aeruginosa [12]) was > 914 µM and the selectivity ratio [13] was 1.08. It also gave an MIC (Enterococcus hirae) of 29 µM (≈ 8.14 µg/mL), an IC50 (HaCaT) of 62 µM and an MIC (Proteus vulgaris) of 57 µM (≈ 16 µg/mL). The MIC (Bacillus cereus) was 29 µM (≈ 8.14 µg/mL), the MIC (Bacillus spizizenii) was 57 µM (≈ 16 µg/mL) and the selectivity ratio [14] was 1.08. It also gave an MIC [15] of 29 µM (≈ 8.14 µg/mL), an MIC (Micrococcus luteus [16]) of 57 µM (≈ 16 µg/mL) and a selectivity ratio [17] of 2.13. It also gave an MIC (Escherichia coli) of 57 µM (≈ 16 µg/mL).
Fc1ccc(-n2nnnc2Nn2cnnc2)cc1 showed an MIC (Staphylococcus aureus [1]) of 33 µM (≈ 8.12 µg/mL), an MIC (Enterococcus faecalis) of 8 µM (≈ 1.97 µg/mL) and an MIC (Micrococcus luteus [2]) of 2 µM (≈ 0.492 µg/mL). The MIC (Staphylococcus aureus [3]) was 65 µM (≈ 16 µg/mL), the MIC [4] was 16 µM (≈ 3.94 µg/mL) and the selectivity ratio [5] was 1.29. It also gave a selectivity ratio [6] of 0.09, a selectivity ratio [7] of 1.47 and a selectivity ratio [8] of 1.29. For the same molecule, the MIC [9] was 130 µM (≈ 32 µg/mL), the MIC (Pseudomonas aeruginosa [10]) was 1040 µM (≈ 256 µg/mL) and the MIC (Staphylococcus aureus [11]) was 65 µM (≈ 16 µg/mL). The IC50 (A549) was 80 µM, the MIC (Pseudomonas aeruginosa [12]) was 1040 µM (≈ 256 µg/mL) and the selectivity ratio [13] was 1.47. The MIC (Enterococcus hirae) was 65 µM (≈ 16 µg/mL), the IC50 (HaCaT) was 84 µM and the MIC (Proteus vulgaris) was 8 µM (≈ 1.97 µg/mL). For the same molecule, the MIC (Bacillus cereus) was 65 µM (≈ 16 µg/mL), the MIC (Bacillus spizizenii) was 65 µM (≈ 16 µg/mL) and the selectivity ratio [14] was 1.47. For the same molecule, the MIC [15] was 33 µM (≈ 8.12 µg/mL), the MIC (Micrococcus luteus [16]) was 2 µM (≈ 0.492 µg/mL) and the selectivity ratio [17] was 2.89. The MIC (Escherichia coli) was 16 µM (≈ 3.94 µg/mL).
